The values that follow are results of earlier work, collected in patent US6696413B2 (Hexal AG, priority 1995, dated 2004).

For the series the following is noted: 16 hours after application of 300 μg of a 5 percent vitamin E solution in ethanol per cm^2.

For the substance vitamin E, the “vitamin E found in the horny layer” value is on record as 10.7% and the “vitamin E found in underlying skin layers” value is recorded as “about 40.9%”.
